Laboratory results reported in PMC6151740, “Pharmacokinetics, Tissue Distribution, and Elimination of Three Active Alkaloids in Rats after Oral Administration of the Effective Fraction of Alkaloids from Ramulus Mori, an Innovative Hypoglycemic Agent” (Molecules : A Journal of Synthetic Chemistry and Natural …, 2017).
Where two headings read alike, the source gives them in different places.

Experiment: Plasma pharmacokinetic study in rats after oral and intravenous administration of SZ–A or purified DNJ
Type: in vivo, rat
Conditions: for AUC(0-inf) / AUC(0-t) / Cmax / Tmax / half-life / clearance / MRT last / MRT inf / Vd / CLz: rat plasma, n = 5; for clearance: read-out: CLz (converted); for MRT last: read-out: MRT0–t; for MRT inf: read-out: MRT0–∞; for bioavailability: plasma, read-out: F (oral absolute bioavailability); for bioavailability / time to reach maximum plasma concentration (Cmax): rat; for time to reach maximum plasma concentration (Cmax): after oral administration of SZ–A (40, 200, 1000 mg/kg), upper bound over doses
Experimental: The oral dosing solutions used for all animal studies were prepared by dissolving in water. Thirty rats weighed 250–270 g after acclimation were randomly divided into six groups of five animals each. For oral administration, rats were treated with SZ–A (40, 200, 1000 mg/kg) or purified DNJ (15 mg/kg) dissolve in water. Blood samples (about 0.25 mL) were collected via the postorbital venous plexus veins under ether anesthesia into heparinized polythene tubes before dosing and at 0.08, 0.17, 0.33, 0.50, 1, 2, 3, 4, 6, 8, 12, 24 and 36 h after drug administration. For intravenous dosing, rats were given SZ–A (4 mg/kg) or DNJ (1.5 mg/kg) dissolved in normal saline solution through the tail vein. Then blood samples were collected at 0.03, 0.08, 0.17, 0.33, 0.67, 1, 2, 4, 6, 8, 12, 24, and 36 h under similar conditions. Considering the physical limit of blood in rats, during the process of the pharmacokinetic experiment, each rat was received 0.25 mL of sterile isotonic saline at each time point after blood sampling for compensation of body fluid loss, and the blood loss was also corrected at a definite degree. Plasma was separated by centrifuging the blood samples at 1660× g for 5 min and stored at −20 °C until LC-MS/MS analysis. Data fitting and pharmacokinetic parameter estimates were carried out using non–compartmental analysis via WinNonlin Software (version 6.1, Pharsight Corporation, Mountain View, CA, USA). F was calculated according to the formula: F (%) = (AUC oral/AUC i.v.) × (dose i.v./dose oral) × 100.
The plasma, feces, urine, and bile samples (100 μL) were added to 1 μL of Tris aqueous solution (2 M), 10 μL of IS working solution (2 μg/mL), and 190 μL methanol–acetonitrile (25:75, v/v). The incubation supernatant samples (300 μL) were mixed with 1 μL Tris aqueous solution (2 M) and 10 μL of IS working solution (2 μg/mL). All mixtures were vortexed for 30 s followed by centrifugation at 18,880× g for 5 min, twice.
Briefly, the LC-MS/MS instrument consisted of a 1260 HPLC system (Agilent, Santa Clara, CA, USA) and API4000 triple quadrupole mass spectrometer (Applied Biosystems Sciex, Toronto, ON, Canada) with an electrospray ionization (ESI) source and Analyst software (version 1.5.2, Applied Biosystems Sciex, Toronto, ON, Canada) for data acquisition and processing. DNJ, FGM, DAB, and IS were separated in a Xbridge amide™ column (3.5 μm, 4.6 mm × 150 mm; Waters, Milford, MA, USA) with a gradient mobile phase of acetonitrile-water (0.1% ammonium hydroxide) at a flow rate of 0.7 mL/min. An ESI source was used in the positive ion mode. The optimized mass spectrometric condition was as follows: ion spray voltage, 5500 V; collision gas, 6 psi; curtain gas, 20 psi; ion source gas 1 (GS1), 45 psi; ion source gas 2 (GS2), 45 psi; temperature, 450 °C. The multiple reaction monitoring (MRM) transitions of DNJ, FGM, DAB, and IS were m/z 164.0→110.1 (declustering potential (DP) 50 V, collision energy (CE) 22 V, collision cell exit potential (CXP) 10 V), 148.0→112.1 (DP 66 V, CE 21 V, CXP 10 V), 134.0→98.0 (DP 60 V, CE 20 V, CXP 10 V) and 208.0→146.1 (DP 50 V, CE 27 V, CXP 10 V), respectively.

[1] = Sprague-Dawley, iv, SZ–A 4 mg/kg i.v.
[2] = Sprague-Dawley, iv, SZ–A 4 mg/kg i.v., read-out: Vd
[3] = Sprague-Dawley, po, SZ–A 40 mg/kg p.o. vs SZ–A 4 mg/kg i.v.
[4] = Sprague-Dawley, po, SZ–A 200 mg/kg p.o. vs SZ–A 4 mg/kg i.v.
[5] = Sprague-Dawley, po, SZ–A 1000 mg/kg p.o. vs SZ–A 4 mg/kg i.v.
[6] = Sprague-Dawley, po, SZ–A 40 mg/kg p.o.
[7] = Sprague-Dawley, po, SZ–A 200 mg/kg p.o.
[8] = Sprague-Dawley, po, SZ–A 1000 mg/kg p.o.

Structure (SMILES)	AUC(0-inf) [1] [ng·h/mL]	AUC(0-t) [1] [ng·h/mL]	Cmax [1] [ng/mL]	Tmax [1] [h]	half-life [1] [h]	clearance [1] [mL/min/kg]	MRT last [1] [h]	MRT inf [1] [h]	Vd [2] [L/kg]	bioavailability [3] [%]	bioavailability [4] [%]	bioavailability [5] [%]	AUC(0-inf) [6] [ng·h/mL]	AUC(0-t) [6] [ng·h/mL]	Cmax [6] [ng/mL]	Tmax [6] [h]	half-life [6] [h]	MRT last [6] [h]	MRT inf [6] [h]	AUC(0-inf) [7] [ng·h/mL]	further results
OC[C@H]1NCC[C@@H](O)[C@@H]1O [FGM, fagomine]	284 ± 36.7	278 ± 36.8	1240 ± 304	0.033	0.23 ± 0.03	15.4	0.26 ± 0.06	0.3 ± 0.06	0.308 ± 0.061	77.5	38.5	29.9	2170 ± 770	2160 ± 778	1490 ± 756	0.67 ± 0.29	0.93 ± 0.29	1.41 ± 0.27	1.48 ± 0.34	5400 ± 1470	AUC(0-t) [7]: 5360 ± 1490 ng·h/mL; Cmax [7]: 2250 ± 1060 ng/mL; Tmax [7]: 0.57 ± 0.09 h; half-life [7]: 1.44 ± 0.16 h; MRT last [7]: 2.66 ± 0.52 h; MRT inf [7]: 2.78 ± 0.54 h; AUC(0-inf) [8]: 21800 ng·h/mL; AUC(0-t) [8]: 20800 ng·h/mL; Cmax [8]: 4390 ± 2360 ng/mL; Tmax [8]: 1.3 ± 0.67 h; half-life [8]: 2.73 ± 1.16 h; MRT last [8]: 5.44 ± 1.77 h; MRT inf [8]: 6.15 ± 2.11 h; CLz (SZ–A 40 mg/kg p.o.): 21.965 ± 9.748 mL/min/kg; Vd (SZ–A 40 mg/kg p.o.): 1.894 ± 1.3578 L/kg; CLz (SZ–A 200 mg/kg p.o.): 42.625 ± 13.11 mL/min/kg; Vd (SZ–A 200 mg/kg p.o.): 5.332 ± 1.8559 L/kg; CLz (SZ–A 1000 mg/kg p.o.): 56.43 ± 21.033 mL/min/kg; Vd (SZ–A 1000 mg/kg p.o.): 14,243.4 ± 9987.6 mL/kg; time to reach maximum plasma concentration (Cmax): ≤ 1.30 h
OC[C@H]1NC[C@@H](O)[C@@H]1O [DAB, 1,4-dideoxy-1,4-imino-D-arabinitol]	129 ± 20.1	124 ± 20.8	625 ± 183	0.033	0.18 ± 0.03	25.6	0.18 ± 0.04	0.21 ± 0.05	0.401 ± 0.0408	78.2	56.6	40.1	978 ± 140	969 ± 147	708 ± 171	0.67 ± 0.29	1.22 ± 0.16	1.32 ± 0.18	1.42 ± 0.25	3560 ± 729	AUC(0-t) [7]: 3510 ± 716 ng·h/mL; Cmax [7]: 2000 ± 656 ng/mL; Tmax [7]: 0.57 ± 0.09 h; half-life [7]: 1.38 ± 0.23 h; MRT last [7]: 1.95 ± 0.35 h; MRT inf [7]: 2.09 ± 0.29 h; AUC(0-inf) [8]: 12900 ng·h/mL; AUC(0-t) [8]: 12400 ng·h/mL; Tmax [8]: 0.47 ± 0.14 h; half-life [8]: 2.38 ± 0.97 h; MRT last [8]: 4.09 ± 1.19 h; MRT inf [8]: 4.66 ± 1.52 h; CLz (SZ–A 40 mg/kg p.o.): 33.188 ± 4.977 mL/min/kg; Vd (SZ–A 40 mg/kg p.o.): 3.5486 ± 0.9901 L/kg; CLz (SZ–A 200 mg/kg p.o.): 46.928 ± 9.39 mL/min/kg; Vd (SZ–A 200 mg/kg p.o.): 5.4724 ± 0.5717 L/kg; CLz (SZ–A 1000 mg/kg p.o.): 65.433 ± 14.71 mL/min/kg; Vd (SZ–A 1000 mg/kg p.o.): 13,892.2 ± 7160.0 mL/kg; time to reach maximum plasma concentration (Cmax): ≤ 0.67 h
